Measurements from the supplement of paper PMC10307832.

Assays:
Experiment in all cases: relative viability (nuclei count vs DMSO), 5 days (fraction); higher = more cells survive
BAY61-3606 + OSI-027 = compound: COC1=C(C=C(C=C1)C2=CC3=NC=CN3C(=N2)NC4=C(C=CC=N4)C(=O)N)OC [BAY61-3606] + COc1cccc2cc(-c3nc([C@H]4CC[C@H](C(=O)O)CC4)n4ncnc(N)c34)[nH]c12 [OSI-027] (partner 0.5 µM)
Method in brief: (§1)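 Dosing by pin tool came one day after lung cancer cell lines were seeded in 1536-well plates, using either one drug or a fixed anchor-drug dose plus five library-drug doses (not always all listed) in √10 steps. After 5 days, nuclei were counted on 4× images. Relative viability is treated-well nuclei count divided by vehicle-well nuclei count, and values are medians of duplicate plates.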

Doxorubicin + Dasatinib = compound: COc1cccc2c1C(=O)c1c(O)c3c(c(O)c1C2=O)C[C@@](O)(C(=O)CO)C[C@@H]3O[C@H]1C[C@H](N)[C@H](O)[C@H](C)O1 [Doxorubicin] + Cc1nc(Nc2ncc(C(=O)Nc3c(C)cccc3Cl)s2)cc(N2CCN(CCO)CC2)n1 [Dasatinib] (partner 0.075 µM)
Method in brief: as §1

BAY61-3606 + Pictilisib = compound: COC1=C(C=C(C=C1)C2=CC3=NC=CN3C(=N2)NC4=C(C=CC=N4)C(=O)N)OC [BAY61-3606] + CS(=O)(=O)N1CCN(Cc2cc3nc(-c4cccc5[nH]ncc45)nc(N4CCOCC4)c3s2)CC1 [Pictilisib] (partner 1 µM)
Method in brief: as §1

Doxorubicin + Lapatinib = compound: COc1cccc2c1C(=O)c1c(O)c3c(c(O)c1C2=O)C[C@@](O)(C(=O)CO)C[C@@H]3O[C@H]1C[C@H](N)[C@H](O)[C@H](C)O1 [Doxorubicin] + CS(=O)(=O)CCNCc1ccc(-c2ccc3ncnc(Nc4ccc(OCc5cccc(F)c5)c(Cl)c4)c3c2)o1 [Lapatinib] (partner 2 µM)
Method in brief: as §1

Cell Line	relative viability (BAY61-3606 + OSI-027; first compound 0.02 µM)	relative viability (BAY61-3606 + OSI-027; first compound 0.06325 µM)	relative viability (BAY61-3606 + OSI-027; first compound 0.2 µM)	relative viability (BAY61-3606 + OSI-027; first compound 0.6325 µM)	relative viability (BAY61-3606 + OSI-027; first compound 2 µM)	relative viability (Doxorubicin + Dasatinib; first compound 0.001 µM)	relative viability (Doxorubicin + Dasatinib; first compound 0.003162 µM)	relative viability (Doxorubicin + Dasatinib; first compound 0.01 µM)	relative viability (Doxorubicin + Dasatinib; first compound 0.03162 µM)	relative viability (Doxorubicin + Dasatinib; first compound 0.1 µM)	relative viability (BAY61-3606 + Pictilisib; first compound 0.02 µM)	relative viability (BAY61-3606 + Pictilisib; first compound 0.06325 µM)	relative viability (BAY61-3606 + Pictilisib; first compound 0.2 µM)	relative viability (BAY61-3606 + Pictilisib; first compound 0.6325 µM)	relative viability (BAY61-3606 + Pictilisib; first compound 2 µM)	relative viability (Doxorubicin + Lapatinib; first compound 0.001 µM)	relative viability (Doxorubicin + Lapatinib; first compound 0.003162 µM)	relative viability (Doxorubicin + Lapatinib; first compound 0.01 µM)	relative viability (Doxorubicin + Lapatinib; first compound 0.03162 µM)	relative viability (Doxorubicin + Lapatinib; first compound 0.1 µM)
NCI-H2342	0.705	0.609	0.596	0.682	0.664	0.308	0.317	0.323	0.298	0.326	–	–	–	–	–	–	–	–	–	–
HCC-15	0.704	0.613	0.721	0.693	0.553	–	0.654	0.493	0.191	0.0861	0.848	0.65	0.697	0.769	0.665	0.661	0.91	0.657	0.563	0.552
A-427	0.538	0.44	0.479	0.542	0.476	0.745	0.743	0.621	0.721	0.673	0.846	0.709	0.744	0.751	0.646	1.1	0.985	1.06	1.04	1.02
NCI-H2347	0.492	0.365	0.457	0.487	0.281	0.271	0.322	0.327	0.283	0.307	0.715	0.495	0.801	0.746	0.892	0.988	1.17	0.975	0.756	0.781
NCI-H1755	0.743	0.657	0.701	0.712	0.671	0.444	0.288	0.437	0.434	0.554	0.532	0.35	0.463	0.415	0.385	0.962	1.05	0.991	1.07	0.998
SK-LU-1	0.357	0.366	0.317	0.285	0.227	0.158	0.193	0.166	0.124	0.116	0.628	0.498	0.662	0.515	0.428	0.822	1.09	0.669	0.523	0.55
NCI-H1975	0.797	0.756	0.692	0.635	0.333	0.406	0.356	0.331	0.304	0.158	0.354	0.238	0.253	0.262	0.19	0.887	0.902	0.719	0.253	0.202
NCI-H1703	–	–	–	–	–	–	–	–	–	–	0.27	0.233	0.241	0.256	0.214	0.821	1.14	0.448	0.241	0.21
HCC-44	0.562	–	0.474	0.583	0.548	–	–	–	–	–	0.581	0.651	0.634	0.684	0.561	0.988	1.02	0.954	0.979	0.815
NCI-H1793	0.259	0.276	–	0.255	0.235	–	0.511	0.374	0.33	0.413	0.434	0.381	0.303	0.352	0.434	–	0.93	0.643	0.537	0.659
NCI-H596	0.699	0.535	0.647	0.711	0.462	0.663	0.621	0.681	0.506	0.579	0.41	0.387	0.386	0.416	0.408	1.08	1.1	1.05	0.943	1.03
PC-3 [JPC-3]	–	0.756	0.711	0.787	0.704	1.02	0.975	0.935	0.946	0.97	0.784	0.695	0.695	0.678	0.561	0.455	0.444	0.46	0.451	0.448
HCC-366	1.07	0.875	0.81	0.862	0.715	–	0.757	0.614	0.238	0.212	0.188	0.138	0.107	0.156	0.116	–	1.09	1	0.168	0.145
NCI-H1623	0.417	0.427	0.504	0.418	0.412	0.502	0.564	0.55	0.548	0.491	–	–	–	–	–	–	–	–	–	–
Calu-6	–	–	–	–	–	–	–	–	–	–	0.963	1.01	0.957	0.932	0.659	0.959	1.05	0.678	0.261	0.221
LCLC-103H	0.472	0.434	0.478	0.425	0.439	0.507	0.6	0.446	0.381	0.552	0.646	0.737	0.654	0.542	0.646	–	–	–	–	–
CAL-12T	0.674	0.593	0.616	0.605	0.269	0.302	0.461	0.346	0.195	0.118	0.553	0.348	0.414	0.392	0.346	0.597	0.656	0.517	0.67	0.404

Cell Line	relative viability (BAY61-3606 + OSI-027; first compound 0.02 µM)	relative viability (BAY61-3606 + OSI-027; first compound 0.06325 µM)	relative viability (BAY61-3606 + OSI-027; first compound 0.2 µM)	relative viability (BAY61-3606 + OSI-027; first compound 0.6325 µM)	relative viability (BAY61-3606 + OSI-027; first compound 2 µM)	relative viability (Doxorubicin + Dasatinib; first compound 0.001 µM)	relative viability (Doxorubicin + Dasatinib; first compound 0.003162 µM)	relative viability (Doxorubicin + Dasatinib; first compound 0.01 µM)	relative viability (Doxorubicin + Dasatinib; first compound 0.03162 µM)	relative viability (Doxorubicin + Dasatinib; first compound 0.1 µM)	relative viability (BAY61-3606 + Pictilisib; first compound 0.02 µM)	relative viability (BAY61-3606 + Pictilisib; first compound 0.06325 µM)	relative viability (BAY61-3606 + Pictilisib; first compound 0.2 µM)	relative viability (BAY61-3606 + Pictilisib; first compound 0.6325 µM)	relative viability (BAY61-3606 + Pictilisib; first compound 2 µM)	relative viability (Doxorubicin + Lapatinib; first compound 0.001 µM)	relative viability (Doxorubicin + Lapatinib; first compound 0.003162 µM)	relative viability (Doxorubicin + Lapatinib; first compound 0.01 µM)	relative viability (Doxorubicin + Lapatinib; first compound 0.03162 µM)	relative viability (Doxorubicin + Lapatinib; first compound 0.1 µM)
NCI-H23	0.629	0.72	0.442	0.561	0.512	–	1.01	0.88	0.668	0.547	0.743	0.522	0.49	0.522	0.382	–	1.1	0.852	0.481	0.43
NCI-H1651	0.702	0.627	0.664	0.637	0.499	0.334	0.39	0.246	0.154	0.102	0.628	0.689	0.623	0.531	0.401	0.784	0.729	0.475	0.166	0.129
BEN	0.336	0.316	0.316	0.285	0.276	0.366	0.296	0.329	0.294	0.418	0.71	0.476	0.6	0.655	0.599	1.01	0.608	0.697	0.474	0.644
EMC-BAC-2	0.391	0.391	0.356	0.363	0.318	0.357	0.316	0.263	0.171	0.12	0.602	0.522	0.47	0.632	0.527	0.943	0.956	0.801	0.415	0.269
LXF-289	0.938	0.834	0.687	0.888	0.825	0.224	0.293	0.241	0.238	0.281	0.846	0.83	0.782	0.805	0.84	0.865	0.886	0.864	0.891	0.823
ABC-1	0.51	0.545	0.521	0.647	0.452	0.612	0.56	0.511	0.33	0.224	0.822	0.766	0.787	0.709	0.538	1.14	1.54	0.975	1.07	1.1
NCI-H358	0.918	0.722	0.781	0.677	0.199	0.175	0.161	0.159	0.0904	0.0827	0.385	0.327	0.333	0.321	0.167	0.503	0.441	0.334	0.195	0.207
EBC-1	–	–	–	–	–	–	–	–	–	–	0.463	0.359	0.404	0.547	0.411	0.236	0.21	0.22	0.195	0.181
NCI-H1648	0.219	0.257	0.263	0.229	0.217	–	–	–	–	–	–	–	–	–	–	–	–	–	–	–
ChaGo-K-1	0.537	0.533	0.519	0.495	0.639	0.633	0.62	0.56	0.479	0.543	0.897	0.591	0.708	0.506	0.696	–	–	–	–	–
A549	–	–	–	–	–	–	–	–	–	–	0.585	0.566	0.532	0.572	0.436	0.922	0.954	0.415	0.0939	0.0714
NCI-H1299	–	–	–	–	–	–	–	–	–	–	0.822	0.854	0.844	0.918	0.503	0.988	0.973	0.955	0.889	0.514
NCI-H522	0.653	0.646	0.686	0.717	0.738	0.724	1.04	0.873	0.776	1	–	–	–	–	–	–	–	–	–	–
NCI-H441	0.587	0.713	0.428	0.557	0.313	–	0.585	0.332	0.166	0.213	0.561	0.529	0.493	0.475	0.282	–	–	–	–	–
IA-LM	–	–	–	–	–	–	–	–	–	–	0.351	0.393	0.442	0.54	0.496	0.845	0.957	0.638	0.18	0.112
SW 900	0.616	0.529	0.612	0.747	0.427	0.544	0.66	0.461	0.36	0.406	–	–	–	–	–	–	–	–	–	–
